# Source: US20230310486A1, “CONJUGATED OLIGONUCLEOTIDE COMPOUNDS, METHODS OF MAKING AND USES THEREOF” (E-Therapeutics PLC, priority 2021, published 2023)
# In the oligonucleotide strings, read from the 5' end, every base follows the letter of its sugar. An asterisk marks phosphorothioate; unmarked linkages are phosphodiester. Other units and linkages are bracketed, terminal groups are in braces. A string of capitals states the bases alone. {ET-GalNAc-T2CO} = code of the source, not defined here; {NH2C12} = code of the source, not defined here; {NHC6} = code of the source, not defined here; m = 2'-O-methyl; f = 2'-fluoro
# Test system: hsHAO1 mRNA
# Assay: Dose-response of hsHAO1 targeting GalNAc-siRNAs in primary human hepatocytes, gymnotic free uptake, bDNA assay
# Type: cell-based
# Details: PHHs
# Description: HepG2 cells were supplied by American Tissue Culture Collection (ATCC) (HB-8065, Lot #: 63176294) and cultured in ATCC-formulated Eagle's Minimum Essential Medium supplemented to contain 10% fetal calf serum (FCS). Primary human hepatocytes (PHHs) were sourced from Primacyt (Schwerin, Germany) (Lot #: CyHuf19009HEc). Cells are derived from a […] by explant technique. All cells used in this study were cultured at 37° C. in an atmosphere with 5% CO2 in a humidified incubator.
# Dose response analysis in PHHs was done by direct incubation of cells in a gymnotic, free uptake setting starting with 1.5 μM highest final siRNA concentration, followed by 500 nM and from there on going serially down in twofold dilution steps.
# Control wells were transfected into HepG2 cells or directly incubated with primary human hepatocytes at the highest test siRNA concentrations studied on the corresponding plate. All control siRNAs included in the different project phases next to mock treatment of cells are summarized and listed in Table 2. For each siRNA and control, at least four wells were transfected/directly incubated in parallel, and individual data points were collected from each well.
# After 24 h of incubation with siRNA post-transfection, media was removed and HepG2 cells were lysed in Lysis Mixture (1 volume of lysis buffer plus 2 volumes of nuclease-free water) and then incubated at 53° C. for at least 45 minutes. In the case of PHHs, plating media was removed 5 h post treatment of cells followed by addition of 50 μl of complete maintenance medium per well. Media was exchanged in that way every 24 h up to a total incubation period of 72 h. At either 4 h or 72 h time point, cell culture supernatant was removed followed by addition of 200 μl of Lysis Mixture supplemented with 1:1000 v/v of Proteinase K.
# The branched DNA (bDNA) assay was performed according to manufacturer's instructions. Luminescence was read using a 1420 Luminescence Counter (WALLAC VICTOR Light, Perkin Elmer, Rodgau-JMgesheim, Germany) following 30 minutes incubation in the presence of substrate in the dark. For each well, the on-target mRNA levels were normalized to the hsGAPDH mRNA levels. The activity of any siRNA was expressed as percent on-target mRNA concentration (normalized to hsGAPDH mRNA) in treated cells, relative to the mean on-target mRNA concentration (normalized to hsGAPDH mRNA) across control wells.
# Following the identification of a suitable batch (CyHuf19009) of primary human hepatocytes (PHHs), a gymnotic, free uptake analysis was performed of hsHAO1 targeting GalNAc-siRNAs, listed in Table 1. The highest tested final siRNA concentration was 1.5 μM, followed by 500 nM, going down in eight two-fold serial dilution steps to the lowest final siRNA concentration of 1.95 nM. The experiments ended at 4 h and 72 h post direct incubation of PHH cells.
Substance,Max. Inhib. (4 h incubation),IC20 (72 h incubation),IC50 (72 h incubation),Max. Inhib. (72 h incubation)
"ECX008: hsHAO1 GalNAc-siRNA, 3′-GalNAc T2a alternating, same sequences as ETX008, lower purity (sense fG*mA*fCmUfUmUfCmAfUmCfCmUfGmGfAmAfAmUfAmUfA-{NHC6}-{ET-GalNAc-T2CO}; antisense mU*fA*mUfAmUfUmUfCmCfAmGfGmAfUmGfAmAfAmGfUmC*fC*mA; further chemistry not given here)",2.0%,0.0049 µM,0.26 µM,58.1%
"ETX002: hsHAO1 GalNAc-siRNA, 5′-GalNAc T2b inverted abasic; sense X91409, antisense X38483; linker + ligand as FIG. 21 (sense GACUUUCAUCCUGGAAAUAUA; antisense UAUAUUUCCAGGAUGAAAGUCCA; 5'-GalNAc, inverted abasic, 2'-F/OMe, PS; misc_feature 1..21 modified siRNA; misc_feature 1..23 modified siRNA)",7.2%,0.0239 µM,,44.3%
"ETX004: hsHAO1 GalNAc-siRNA, 5′-GalNAc T2b alternating; sense X91412, antisense X91398; linker + ligand as FIG. 21 (sense {ET-GalNAc-T2CO}-{NH2C12}-fGmAfCmUfUmUfCmAfUmCfCmUfGmGfAmAfAmUfA*mU*fA; antisense mU*fA*mUfAmUfUmUfCmCfAmGfGmAfUmGfAmAfAmGfUmC*fC*mA)",−2.3%,0.0028 µM,,35.5%
